Measured values published in PubChem BioAssay (NCI).
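Protocol summary: plate cells (96-well), add compound at 5 concentrations, incubate 48 h, interpolate endpoints linearly. Here, GI50 denotes the concentration required for 50% inhibition of growth. TGI: concentration producing complete growth inhibition.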

How the values were obtained:
Test in all cases: NCI tumour cell line growth inhibition, 48 h
CAKI-1 renal = system: CAKI-1 renal
EKVX NSCLC = system: EKVX NSCLC
HCC-2998 colon = system: HCC-2998 colon
NCI-H522 lung = system: NCI-H522 lung
RPMI-8226 leukemia = system: RPMI-8226 leukemia
SF-268 CNS = system: SF-268 CNS
SF-295 CNS = system: SF-295 CNS
SF-539 CNS = system: SF-539 CNS
SNB-19 CNS = system: SNB-19 CNS
T-47D breast = system: T-47D breast

Compound | GI50 (CAKI-1 renal) [µM] | TGI (CAKI-1 renal) [µM] | GI50 (EKVX NSCLC) [µM] | TGI (EKVX NSCLC) [µM] | GI50 (HCC-2998 colon) [µM] | TGI (HCC-2998 colon) [µM] | GI50 (NCI-H522 lung) [µM] | TGI (NCI-H522 lung) [µM] | GI50 (RPMI-8226 leukemia) [µM] | TGI (RPMI-8226 leukemia) [µM] | GI50 (SF-268 CNS) [µM] | TGI (SF-268 CNS) [µM] | GI50 (SF-295 CNS) [µM] | TGI (SF-295 CNS) [µM] | GI50 (SF-539 CNS) [µM] | TGI (SF-539 CNS) [µM] | GI50 (SNB-19 CNS) [µM] | TGI (SNB-19 CNS) [µM] | GI50 (T-47D breast) [µM] | TGI (T-47D breast) [µM]
Cc1ccc(NC(=O)c2cccc(C(C)(C)C#N)c2)cc1Nc1ccc2ncn(C)c(=O)c2c1 | 2.96 | > 100 | 3.74 | > 100 | 0.0676 | > 100 | 3.88 | > 100 | 3.25 | > 100 | 6.01 | > 100 | 6.99 | > 100 | 3.32 | > 100 | 5.48 | > 100 | 3.66 | > 100
CN(C)CCNc1ccc(CO)c2oc3ccc(O)cc3c(=O)c12 |  | > 100 |  | 47.5 |  | 27.9 |  | 17.1 |  | 51.1 |  | 42.2 |  | 41.5 |  | 25.1 |  | 55.9 |  | 59.4
COc1ccc2[nH]c3c4[nH]c5ccc(OC)cc5c4c4c(c3c2c1)C(=O)NC4=O | 1.77 | > 25 | > 25 | > 25 | > 25 | > 25 | 2.32 | > 25 | 0.998 | > 25 | > 22 | > 25 | > 15.7 | > 25 | 1.31 | > 17 | > 25 | > 25 | > 25 | > 25
COc1cc(OC)c(C(=O)/C=C/c2cccc(C(F)(F)F)c2)c(OC)c1 | 2.17 | 7.22 | 1.5 | 4.3 | 2.11 | 6.89 | 0.857 | 1.94 | 1.03 | 2.85 | 1.64 | 6.13 | 1.67 | 6.72 | 1.37 | 3.5 | 1.44 | 4.67 | 1.61 | 9.43
CC1(C)C(=O)/C(=C\c2cccnc2)C[C@]2(C)[C@H]3CC[C@@H]4[C@H]5[C@H](C(=O)/C=C/c6cccnc6)CC[C@]5(C(=O)O)CC[C@@]4(C)[C@]3(C)CC[C@@H]12 | 1.66 | 3.38 | 2.11 | 4.92 | 1.88 | 3.55 | 2.35 | 5.99 | 1.88 | 7.28 | 2.15 | 5.46 | 2.22 | 5.59 | 1.9 | 3.92 | 2.34 | 5.69 | 3.75 | 24.6
N#Cc1cc(-c2cc3ccccc3o2)oc1N | 1.65 | 5.48 | 2.83 | 14.1 | 4.92 | 18.9 | 2.41 | 12.6 | 1.46 | 5.04 | 4.73 | 20.1 | 2.22 | 4.97 | 3.89 | 14.5 | 4.07 | 31.7 | 3.89 | 59
COc1ccc(C(=O)c2cc(C)c(OC)c(C)c2)c(OC)c1O | 0.185 | > 100 | 0.238 | > 100 | 0.127 | > 27.4 | < 0.0189 |  | 0.0463 | > 62.6 | 0.207 | > 100 | 0.0396 | > 100 | 0.0206 | 0.0532 | 0.0332 | > 100 | 5.95 | > 100
COc1ccc(C(=O)c2cc(OC)c(OC)c(OC)c2)cc1/C=C/C(=O)c1ccc(F)cc1 | 2.78 | 14.6 | 11.1 | 31.4 | 7.29 | 22.6 | 2.02 | 5.34 | 2.32 | 6.98 | 3.86 | 16.1 | 7.21 | 37.3 | 1.98 | 4.3 | 2.26 | 5.96 | 3.54 | 27.8
Cc1cc(C(=O)Nc2ccc3cc(CN4CCOCC4)ccc3n2)c(C)n1-c1ccccc1 | 1.5 | 16.7 | 1.38 | > 100 | 8.78 | > 100 | 2.67 | 9.38 | 0.822 | 3.73 | 3.35 | 35.7 | 1.99 | 12.5 | 4.84 | 27.7 | 17.6 | > 100 | 0.393 | 4.56
COc1ccc(C2=C(Cl)c3cc(OC)c(OC)cc3C2Cl)cc1 (centres undefined) |  | 34.6 |  | 66.5 |  | 28.1 |  | > 27.5 |  | > 66.3 |  | 36 |  | 34.1 |  | 30.8 |  | 39.5 |  | 35.1
COc1c2c(cc3c1OCO3)[C@]13C=C[C@H](OC)C[C@H]1N(C2)CC3O (some centres undefined) |  | > 100 |  | > 100 |  | > 100 |  | > 100 |  | > 100 |  | > 100 |  | > 100 |  | > 100 |  | > 100 |  | > 100
CCCCCCCCCCCCCCCC(=O)OCC(C[As](=O)(O)O)OC(=O)CCCCCCCCCCCCCCC (centres undefined) |  | > 100 |  | > 100 |  | > 100 |  | > 100 |  | > 100 |  | > 100 |  | > 100 |  | > 100 |  | > 100 |  | > 100
O=C1c2cccnc2-c2nc(-c3ccc(Cl)cc3)cc3c2c1nc1ccccc13 | 67.7 | > 100 | > 100 | > 100 | > 100 | > 100 | 21 | > 100 | 56.5 | > 100 | 71.2 | > 100 | 22.9 | > 100 | 59.8 | > 100 | > 100 | > 100 | > 100 | > 100
